Test results: patent publication US20190367516A1 (Bayer Pharma Aktiengesellschaft, priority 2015, published 2019)
Like-named read-outs stand apart in the source and are kept apart here.

Tests used:
human M2 receptor [1] = molecular target: T1, human M2 receptor (Homo sapiens, UniProt P08172); type: cell-based; settings: α >1 = positive cooperativity
T1 sequence (P08172 1-466): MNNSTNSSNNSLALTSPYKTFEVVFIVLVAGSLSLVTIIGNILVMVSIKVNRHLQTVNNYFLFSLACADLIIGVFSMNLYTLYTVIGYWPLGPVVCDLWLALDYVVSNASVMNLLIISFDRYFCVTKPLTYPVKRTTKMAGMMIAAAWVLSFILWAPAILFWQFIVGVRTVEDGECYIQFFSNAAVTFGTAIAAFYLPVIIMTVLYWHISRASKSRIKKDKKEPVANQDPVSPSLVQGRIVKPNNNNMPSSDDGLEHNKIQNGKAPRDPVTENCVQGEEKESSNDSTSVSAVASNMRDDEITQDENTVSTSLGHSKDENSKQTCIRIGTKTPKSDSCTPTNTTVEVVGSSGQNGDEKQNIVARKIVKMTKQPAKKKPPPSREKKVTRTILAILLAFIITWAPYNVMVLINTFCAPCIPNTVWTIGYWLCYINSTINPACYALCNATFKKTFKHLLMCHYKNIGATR

human M2 receptor [2] = molecular target: T1, human M2 receptor; settings: for Efficiency: boosting of the acetylcholine effect at EC20 acetylcholine concentration; for Emax: read-out: Efficiency, boosting of the acetylcholine effect at EC20 acetylcholine concentration
[3] = shift of acetylcholine dose-response curve (Allosteric EC50 shift)
[4] = Receptor activity EC50, allosteric potency at EC20 acetylcholine, M2-GIRK1/4 reporter cells, in some cases mean of two or more determinations
[5] = shift in the acetylcholine dose-response curve (Allosteric EC50 shift, GraphPad PRISM)
[6] = Receptor activity EC50, M2-GIRK1/4 activation test, acetylcholine at EC20, allosteric potency, in some cases mean values from two or more determinations

Row | Compound | Cooperativity (alpha factor) (human M2 receptor [1]; [3]) | EC50 (human M2 receptor [2]; [4]) | Efficiency (human M2 receptor [2]; M2-GIRK1/4 reporter cells) | Cooperativity (alpha factor) (human M2 receptor [1]; [5]) | EC50 (human M2 receptor [2]; [6]) | Emax (human M2 receptor [2]; M2-GIRK1/4 reporter cells)
1 | CC(NC(=O)c1cn(-c2c(F)cc(F)cc2F)c2nc(N3CCNC3=O)ccc2c1=O)C(F)(F)C(F)(F)F (racemic) [Example 542, 4-Oxo-7-(2-oxoimidazolidin-1-yl)-N-[3,3,4,4,4-pentafluorobutan-2-yl]-1-(2,4,6-trifluorophenyl)-1,4-dihydro-1,8-naphthyridine-3-carboxamide] | 36 | 19 nM | 98.5% |  |  | 
2 | CC(C)(CC(F)(F)F)NC(=O)c1cn(-c2c(F)cc(F)cc2F)c2nc(N3CC(O)C4(CC4)C3)ccc2c1=O (racemic) [Example 571, 7-[7-Hydroxy-5-azaspiro[2.4]hept-5-yl]-4-oxo-N-(4,4,4-trifluoro-2-methylbutan-2-yl)-1-(2,4,6-trifluorophenyl)-1,4-dihydro-1,8-naphthyridine-3-carboxamide] | 33 |  | 94.0% |  |  | 
3 | CC[C@@H](NC(=O)c1cn(-c2ccc(F)cc2F)c2nc(N3CCC(C)(OC)C3=O)ccc2c1=O)C(F)(F)F (single isomer, unassigned) [Example 198] |  |  |  | 13 | 113 nM | 
4 | CC[C@@H](NC(=O)c1cn(-c2ccc(F)cc2F)c2nc(N3CCC(C)(OC)C3=O)ccc2c1=O)C(F)(F)F (single isomer, unassigned) [Example 199] |  |  |  | 15 | 263 nM | 
5 | O=C(N[C@H](c1ccccc1Cl)C(F)(F)F)c1cn(-c2ccc(F)cc2F)c2nc(N3CCCC(O)C3=O)ccc2c1=O (single isomer, unassigned) [Example 207] |  |  |  | 18 | 35 nM | 
6 | O=C(N[C@H](c1ccccc1Cl)C(F)(F)F)c1cn(-c2ccc(F)cc2F)c2nc(N3CCCC(O)C3=O)ccc2c1=O (single isomer, unassigned) [Example 208] |  |  |  | 23 | 115 nM | 
7 | CC(NC(=O)c1cn(-c2ccc(F)cc2F)c2nc(N3C[C@@H](O)CC3=O)ccc2c1=O)c1c(F)cccc1F (single isomer, unassigned) [Example 216] |  |  |  | 35 | 89 nM | 
8 | CC[C@H](NC(=O)c1cn(-c2ccc(F)cc2F)c2nc(N3CCC(O)C3)ccc2c1=O)C(F)(F)F (single isomer, unassigned) [Example 219] |  |  |  | 33 | 106 nM | 
9 | CC[C@H](NC(=O)c1cn(-c2ccc(F)cc2F)c2nc(N3CCC(O)C3)ccc2c1=O)C(F)(F)F (single isomer, unassigned) [Example 220] |  |  |  | 29 | 116 nM | 
10 | CC[C@@H](NC(=O)c1cn(-c2ccc(F)cc2F)c2nc(N3CC4CNC(=O)C4C3)ccc2c1=O)C(F)(F)F (single isomer, unassigned) [Example 223] |  |  |  | 30 | 84 nM | 
11 | CC[C@@H](NC(=O)c1cn(-c2ccc(F)cc2F)c2nc(N3CCC(O)C3=O)ccc2c1=O)C(F)(F)F (single isomer, unassigned) [Example 225] |  |  |  | 33 | 363 nM | 
12 | CC[C@@H](NC(=O)c1cn(-c2ccc(F)cc2F)c2nc(N3CCC(O)C3=O)ccc2c1=O)C(F)(F)F (single isomer, unassigned) [Example 226] |  |  |  | 35 | 83 nM | 
13 | CC(COC(F)(F)F)NC(=O)c1cn(-c2ccc(F)cc2F)c2nc(N3CC[C@H](F)C3)ccc2c1=O (single isomer, unassigned) [Example 228] |  |  |  | 12 | 51 nM | 
14 | CC(COC(F)(F)F)NC(=O)c1cn(-c2ccc(F)cc2F)c2nc(N3CC[C@H](F)C3)ccc2c1=O (single isomer, unassigned) [Example 229] |  |  |  | 13 | 52 nM | 
15 | O=C(NC(c1c(F)cccc1F)C(F)(F)F)c1cn(-c2ccc(F)cc2F)c2nc(N3CC[C@H](F)C3)ccc2c1=O (single isomer, unassigned) [Example 242] |  |  |  | 10 | 90 nM | 
16 | O=C(NC(c1c(F)cccc1F)C(F)(F)F)c1cn(-c2ccc(F)cc2F)c2nc(N3CC[C@H](F)C3)ccc2c1=O (single isomer, unassigned) [Example 243] |  |  |  | 33 | 15 nM | 
17 | O=C(NC(c1c(F)cccc1F)C(F)(F)F)c1cn(-c2ccc(F)cc2F)c2nc(N3C[C@@H](O)CC3=O)ccc2c1=O (single isomer, unassigned) [Example 245] |  |  |  | 42 | 112 nM | 

Row | Compound | Cooperativity (alpha factor) (human M2 receptor [1]; [3]) | EC50 (human M2 receptor [2]; [4]) | Efficiency (human M2 receptor [2]; M2-GIRK1/4 reporter cells) | Cooperativity (alpha factor) (human M2 receptor [1]; [5]) | EC50 (human M2 receptor [2]; [6]) | Emax (human M2 receptor [2]; M2-GIRK1/4 reporter cells)
18 | O=C(NC(c1c(F)cccc1F)C(F)(F)F)c1cn(-c2ccc(F)cc2F)c2nc(N3C[C@@H](O)CC3=O)ccc2c1=O (single isomer, unassigned) [Example 246] |  |  |  | 53 | 23 nM | 
19 | O=C(NC(c1c(F)cccc1F)C(F)(F)F)c1cn(-c2ccc(F)cc2F)c2nc(N3CCCC(O)C3=O)ccc2c1=O (single isomer, unassigned) [Example 250, 1-(2,4-Difluorophenyl)-N-[1-(2,6-difluorophenyl)-2,2,2-trifluoroethyl]-7-[3-hydroxy-2-oxopiperidin-1-yl]-4-oxo-1,4-dihydro-1,8-naphthyridine-3-carboxamide] |  |  |  | 27 | 101 nM | 
20 | O=C(NC(c1c(F)cccc1F)C(F)(F)F)c1cn(-c2ccc(F)cc2F)c2nc(N3CCC(O)CC3=O)ccc2c1=O (single isomer, unassigned) [Example 255, 1-(2,4-Difluorophenyl)-N-[1-(2,6-difluorophenyl)-2,2,2-trifluoroethyl]-7-[4-hydroxy-2-oxopiperidin-1-yl]-4-oxo-1,4-dihydro-1,8-naphthyridine-3-carboxamide] |  |  |  | 31 | 83 nM | 
21 | CC[C@@H](NC(=O)c1cn(-c2c(F)cc(F)cc2F)c2nc(N3CCC(O)C3=O)ccc2c1=O)C(F)(F)F (single isomer, unassigned) [Example 281] |  |  |  | 44 | 34 nM | 
22 | O=C(NC(c1ccccc1Cl)C(F)(F)F)c1cn(-c2ccccc2F)c2nc(N3CCC(O)C3=O)ccc2c1=O (single isomer, unassigned) [Example 288] |  |  |  | 12 | 40 nM | 
23 | CC[C@@H](NC(=O)c1cn(-c2c(F)cccc2F)c2nc(N3CCC(O)C3=O)ccc2c1=O)C(F)(F)F (single isomer, unassigned) [Example 294] |  |  |  | 31 | 65 nM | 
24 | CC[C@@H](NC(=O)c1cn(-c2c(F)cccc2F)c2nc(N3CC4CC4(O)C3)ccc2c1=O)C(F)(F)F (single isomer, unassigned) [Example 305] |  |  |  | 23 | 12 nM | 
25 | CC[C@@H](NC(=O)c1cn(-c2c(F)cccc2F)c2nc(N3CC4CC4(O)C3)ccc2c1=O)C(F)(F)F (single isomer, unassigned) [Example 306] |  |  |  | 21 | 52 nM | 
26 | CC[C@@H](NC(=O)c1cn(-c2ccc(F)cc2F)c2nc(N3CC4CC4(O)C3)ccc2c1=O)C(F)(F)F (single isomer, unassigned) [Example 314] |  |  |  | 24 | 27 nM | 
27 | CC[C@@H](NC(=O)c1cn(-c2ccc(F)cc2F)c2nc(N3CC4CC4(O)C3)ccc2c1=O)C(F)(F)F (single isomer, unassigned) [Example 315] |  |  |  | 25 | 38 nM | 
28 | CC[C@H](NC(=O)c1cn(-c2c(F)cc(F)cc2Cl)c2nc(N3C[C@@H](O)CC3=O)ccc2c1=O)C(F)(F)F (single isomer, unassigned) [Example 399] | 11 | 40 nM |  |  |  | 96.5%
29 | CCC(COC(F)(F)F)NC(=O)c1cn(-c2c(F)cc(F)cc2F)c2nc(N3C[C@@H](O)CC3=O)ccc2c1=O (single isomer, unassigned) [Example 412] | 34 | 16 nM | 98.0% |  |  | 
30 | CC[C@H](NC(=O)c1cn(-c2c(F)cc(F)cc2Cl)c2nc(N3CCC(C)C3=O)ccc2c1=O)C(F)(F)F (single isomer, unassigned) [Example 424] | 15 | 7 nM | 99.0% |  |  | 
31 | CC[C@H](NC(=O)c1cn(-c2c(F)cc(F)cc2Cl)c2nc(N3CCC(C)C3=O)ccc2c1=O)C(F)(F)F (single isomer, unassigned) [Example 425] | 9 | 5 nM | 90.5% |  |  | 
32 | CC[C@@H](NC(=O)c1cn(-c2ccc(F)cc2F)c2nc(N3CC(C)NC3=O)ccc2c1=O)C(F)(F)F (single isomer, unassigned) [Example 432] | 26 | 40 nM |  |  |  | 94%
33 | O=C(NC(CC(F)(F)F)C1CC1)c1cn(-c2c(F)cc(F)cc2F)c2nc(N3C[C@@H](O)[C@H](O)C3)ccc2c1=O (single isomer, unassigned) [Example 439] | 35 | 20 nM |  |  |  | 100%
